Data on 4 molecules can be found in patent US6491894B1, “NGR receptor and methods of identifying tumor homing molecules that home to angiogenic vasculature using same” (The Burnham Institute, priority 1998, dated 2002).

Where no end group is shown, it is not given here.

Data set [1] concerns the target T1, CD13/APN (Homo sapiens, UniProt P15144).
T1 construct: Experiments were performed using HL-60 cell extracts because they are known to express CD13/APN; endogenous in cells; host or cells: HL-60 cells (extract)
Kind of data set: Aminopeptidase enzymatic activity of immuno-isolated CD13 (Ala-pNA or Leu-pNA). The class given is biochemical. Particulars: Kaposi's sarcoma tumor cell extracts. Here is the method: Given that the NGR sequence closely resembles a reverse RGD sequence, NGR-containing phage were tested to determine whether they would bind to CD13/aminopeptidase (CD13/APN). Kaposi's sarcoma tumor cell octylglucoside extracts were used as a source of CD13/APN. Aminopeptidase enzymatic activity was measured in these extracts utilizing Ala-pNA or Leu-pNA as substrates by monitoring the absorbance of the samples at 405 nm (Look et al., supra (1989); Taylor, supra (1993); Amoscato et al., supra (1989), each of which is incorporated herein by reference).
The CD13 antibody alone had no aminopeptidase activity.

In the next data set the target is CD13/aminopeptidase N (Homo sapiens, UniProt P15144). Particulars: cited from earlier work.
The conditions of data set [2]: high doses; cited from earlier work.
Data set [3] addresses T2, CD13 (Gallus gallus, UniProt O57579).
T2 construct: CD13 is expressed in CAM angiogenic vasculature; from tissue; host or cells: chorioallantoic membrane of 10-day chicken embryos
T2 sequence (O57579 1-972): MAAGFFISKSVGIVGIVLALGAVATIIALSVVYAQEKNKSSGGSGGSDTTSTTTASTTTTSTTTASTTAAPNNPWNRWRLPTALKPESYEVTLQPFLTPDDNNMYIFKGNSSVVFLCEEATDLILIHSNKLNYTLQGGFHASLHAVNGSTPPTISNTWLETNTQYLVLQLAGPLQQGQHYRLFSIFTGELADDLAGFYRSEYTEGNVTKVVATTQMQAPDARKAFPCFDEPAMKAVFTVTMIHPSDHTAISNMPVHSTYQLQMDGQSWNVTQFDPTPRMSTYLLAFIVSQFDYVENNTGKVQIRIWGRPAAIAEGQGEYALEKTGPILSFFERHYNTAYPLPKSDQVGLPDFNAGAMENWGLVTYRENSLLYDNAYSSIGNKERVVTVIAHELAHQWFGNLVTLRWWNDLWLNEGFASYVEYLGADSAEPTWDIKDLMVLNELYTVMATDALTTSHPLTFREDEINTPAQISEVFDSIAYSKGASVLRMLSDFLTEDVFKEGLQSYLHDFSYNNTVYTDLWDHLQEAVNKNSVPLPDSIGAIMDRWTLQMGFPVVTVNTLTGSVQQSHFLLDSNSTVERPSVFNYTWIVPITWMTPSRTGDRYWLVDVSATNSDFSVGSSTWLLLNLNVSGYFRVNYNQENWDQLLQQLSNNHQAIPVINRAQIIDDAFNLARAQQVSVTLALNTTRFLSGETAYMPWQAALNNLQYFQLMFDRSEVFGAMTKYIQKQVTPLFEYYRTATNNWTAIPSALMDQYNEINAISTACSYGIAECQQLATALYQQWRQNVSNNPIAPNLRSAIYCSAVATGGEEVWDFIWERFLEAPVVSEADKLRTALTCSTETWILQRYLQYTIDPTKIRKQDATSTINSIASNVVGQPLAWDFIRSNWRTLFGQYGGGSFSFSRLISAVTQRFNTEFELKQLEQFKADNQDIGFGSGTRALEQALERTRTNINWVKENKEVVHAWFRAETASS
Kind of data set: bFGF-induced angiogenesis in chicken chorioallantoic membrane (CAM). Type of data set: in vivo. Particulars: topical, 3 days. The text has this:
Various treatments were applied topically, and, after 3 days, the filters and surrounding CAMs were resected and fixed in formalin.
Each bar represents the mean number of vessels and standard errors from 8 CAMs on each group.

The target in data set [4] is T1, CD13/APN. Kind of data set: Affinity chromatography of cell extracts on immobilized peptide. The class given is binding. Particulars: Molt-4/CD13, MDA-MB-435/CD13 or HL-60 cell extracts. The method, then:
To further characterize the interaction of CD13/APN with the NGR peptide, affinity chromatography on the CNGRC peptide was performed. The column was prepared by coupling the CNGRC peptide to SEPHAROSE (Pharmacia; Piscataway N.J.). Elution was effected with soluble CNGRC peptide. […] Extracts of Molt-4 and MDA-MB-435 cells transfected with CD13/APN were also characterized by using affinity chromatography, with extracts of the mock transfected counterparts used as negative controls.
The fractions were also analyzed for CD13 enzymatic activity using AlapNA as the substrate.

The target in data set [5] is T3, CD13 (Homo sapiens, UniProt P15144). Put plainly: Phage binding to immobilized CD13. Set-up: Kaposi's sarcoma tumor cell octylglucoside extracts were used as a source of CD13/APN; endogenous in cells; host or cells: Kaposi's sarcoma tumor cells (octylglucoside extract). The conditions noted are these: 200 μg/well. Here is the method: In FIG. 4B, NGR-containing phage were assayed for the ability to bind CD13. […] Various phage were added to the wells at 2×10^9 transducing units (TU) per well. […] The data were expressed as means and standard errors from triplicate wells.
The data shown were expressed as means and standard errors from triplicate wells.

Data set [6] deals with T3, CD13. Put plainly: Phage binding assays with CD13/APN-transfected cells. The class given is cell-based. Details: expressed in transfected cells; host or cells: Molt-4 human T cell leukemia. Particulars: 250 and 500 μg/ml. The method, then: The CNGRC phage binds specifically to cells transfected with CD13. […] Briefly, mock transfected Molt-4 cells (“Molt-4/mock”) and cells transfected with CD13 (“Molt-4/CD13”) were incubated with CNGRC (SEQ ID NO:8) phage or with control Fd phage lacking an insert (2×10^9 transducing units (TU) per sample). Synthetic peptides, CNGRC (SEQ ID NO:8) or the negative control CARAC (SEQ ID NO:221), were pre-incubated with the cells at 250 and 500 μg/ml. After extensive washing, bound phage were quantitated by infection of bacteria as described above.

Data set [7] concerns MDA-MB-435 derived tumors. Kind of data set: In vivo targeting of phage to breast carcinoma xenografts (phage recovery). Set-up: species or system mouse. The method, then: When the tumors attained a diameter of about 1 cm, phage expressing a specific RGD-containing peptide were administered to the tumor bearing mouse. Similar results to those discussed below also were obtained with nude mice bearing tumors formed by implantation of human melanoma C8161 cells or by implantation of mouse B16 melanoma cells.
1×10^9 phage expressing the RGD-containing peptide, RGD-4C ([…]; SEQ ID NO:1; see, Koivunen et al., supra, 1995) or control (insertless) phage were injected intravenously (iv) into the mice and allowed to circulate for 4 min. The mice then were snap frozen or perfused through the heart while under anesthesia, and various organs, including tumor, brain and kidney, were removed and the phage present in the organs was quantitated (see U.S. Pat. No. 5,622,699; Pasqualini and Ruoslahti, supra, 1996).
Phage displaying tumor homing peptides were recovered from breast carcinoma xenografts. […] The mean number of phage recovered from the tumor or control tissue (brain) and the standard error of the mean (SEM) from triplicate platings are shown in FIG. 1.
An insertless phage with a different selective marker (ampicillin instead of tetracycline) was co-injected with the NGR phage at the same input to assess specificity within the same tumor-bearing animal. The ratios were calculated using the number of co-injected control ampicillin-resistant phage recovered from the same tissues. The phage were quantitated from triplicate platings on tetracycline (the homing phage) or ampicillin (control phage) selective plates. Various additional control phage were injected separately into tumor-bearing mice. These controls included: fd-tet phage without insert; unselected phage library mixtures; phage selected and shown to home to other normal vascular beds; and phage displaying peptides that were unrelated to NGR. The RGD-4C ([…]; SEQ ID NO:1) phage served as a positive control.

Data set [8] is described as follows: Acute toxicity in mice bearing extremely large tumors. The conditions noted are these: mouse, in vivo.
Data set [9] relates to MDA-MB-435 breast carcinoma. Kind of data set: Tumor therapy of mice bearing MDA-MB-435 breast carcinoma. Type of data set: in vivo, mouse. Here is the method:
Female 2-month old Balb c nu/nu mice (Harlan Sprague Dawley; San Diego Calif.) were used for these studies and were cared for according to the Burnham Institute animal facility guidelines. […] Tumors were allowed to grow to a size of about 1 cm^3 (about 5% of the mouse's body weight) before starting the treatment experiments, except for the toxicity experiments as discussed below.
Weekly doxorubicin/peptide conjugate or control treatments (5 μg/mouse/week of doxorubicin-equivalent) were administered intravenously. In some experiments, as indicated, a dose of 30 μg/mouse was administered every 3 weeks. […] As an additional control, in some experiments the tumor homing peptide was mixed with doxorubicin, without linking, and the mixture was administered to tumor bearing mice.
Mice were anesthetized with a tribromoethanol-based anesthetic mixture (AVERTIN; Papaioannou and Fox, Lab. Anim. 43:189-192 (1993)) before each treatment. Anesthetization facilitated the tail vein injections (final volume, 200 μl) and allowed precise serial three dimensional tumor size measurements. Tumor volume calculations were based on the equation for the volume of an ovaloid: V=4/3(nabc), where a, b, and c are ½ of the measured diameters in each of the three dimensions.
Briefly, mice with size-matched tumors (˜1000 mm^3) were randomized into four treatment groups (six animals per group): vehicle only, free doxorubicin, doxorubicin-control peptide, and doxorubicin-CNGRC (SEQ ID NO:8). Mice were treated at 5 μg/mouse/week of doxorubicin-equivalent, and the difference in tumor volumes between day 1 and day 28 determined (FIG. 11A).

In the next data set the test system is Hodgkin's lymphoma. Put plainly: Treatment of mice bearing Hodgkin's lymphoma. Type of data set: in vivo. Particulars: two doses, 40 μg/mouse doxorubicin equivalent, tumors ~5000 mm^3. The method, then: Mice bearing large (˜5000 mm^3) Hodgkin's lymphoma (eight animals per group) were randomized to receive two doses of free doxorubicin plus unconjugated CNGRC peptide or doxorubicin-CNGRC (SEQ ID NO:8) conjugate at 40 μg/mouse of doxorubicin equivalent.

Setting [10] is: 5 μg/mouse/week doxorubicin-equivalent iv.

T1 sequence (P15144 whole entry): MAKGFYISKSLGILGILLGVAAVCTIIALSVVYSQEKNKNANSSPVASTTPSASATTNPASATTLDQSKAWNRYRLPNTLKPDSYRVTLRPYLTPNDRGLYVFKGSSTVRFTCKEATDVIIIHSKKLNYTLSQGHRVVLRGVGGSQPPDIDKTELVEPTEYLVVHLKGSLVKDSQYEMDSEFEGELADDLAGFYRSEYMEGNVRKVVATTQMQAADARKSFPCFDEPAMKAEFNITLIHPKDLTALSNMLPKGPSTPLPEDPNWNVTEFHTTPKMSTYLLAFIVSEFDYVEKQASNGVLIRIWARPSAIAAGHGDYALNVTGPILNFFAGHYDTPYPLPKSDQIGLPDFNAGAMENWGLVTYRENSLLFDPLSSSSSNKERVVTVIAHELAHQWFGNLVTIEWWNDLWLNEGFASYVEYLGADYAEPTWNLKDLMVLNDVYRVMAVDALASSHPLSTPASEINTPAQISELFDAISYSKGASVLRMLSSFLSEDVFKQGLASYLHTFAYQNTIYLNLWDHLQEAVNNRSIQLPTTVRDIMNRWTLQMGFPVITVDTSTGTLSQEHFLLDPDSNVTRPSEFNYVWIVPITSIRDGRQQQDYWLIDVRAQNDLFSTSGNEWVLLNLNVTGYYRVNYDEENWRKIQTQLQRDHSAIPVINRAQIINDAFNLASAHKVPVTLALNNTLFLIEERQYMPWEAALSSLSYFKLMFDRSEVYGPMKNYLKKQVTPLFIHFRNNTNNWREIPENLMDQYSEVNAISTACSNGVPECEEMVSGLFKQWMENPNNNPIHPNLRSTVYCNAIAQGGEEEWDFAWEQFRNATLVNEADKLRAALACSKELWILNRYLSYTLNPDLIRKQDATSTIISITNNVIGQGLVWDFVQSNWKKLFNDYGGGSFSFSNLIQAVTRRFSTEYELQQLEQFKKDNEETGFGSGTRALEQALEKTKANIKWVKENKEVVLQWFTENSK
T3 sequence (P15144 whole entry): as above
Sequence of CD13/aminopeptidase N (P15144 whole entry): as above

For `c1cnc2c(c1)ccc1cccnc12` [o-phenanthroline], the “inhibition of aminopeptidase activity captured by CD13 antibody” value on CD13/APN [1] is given as “inhibited the activity”. Further, the “block of cell-surface CD13/aminopeptidase N enzymatic activity” value on CD13/aminopeptidase N was “potently blocked”.
Regarding `CC(C)C[C@H](NC(=O)[C@@H](O)[C@H](N)Cc1ccccc1)C(=O)O` [bestatin], the effect on metastasis entry in data set [2] is “marked suppression of experimental and spontaneous metastasis”. For the same molecule, the “block of cell-surface CD13/aminopeptidase N enzymatic activity” value on CD13/aminopeptidase N is reported as “potently blocked”. The “effect on bFGF-induced angiogenesis in CAM” value on CD13 [3] is “suppress bFGF-induced angiogenesis”.
Turning to CNGRC, the “elution of CD13/APN from the CNGRC column by soluble peptide” value in the data set with CD13/APN [4] is “yielded fractions containing functional CD13/APN”. Moreover, in the data set with CD13 [5], the “inhibition of NGR-phage binding to CD13 by peptide” value was “Inhibition”. Moreover, the “inhibition of CNGRC phage binding to CD13 transfected cells by synthetic peptide” value with CD13 [6] is listed as “blocked”. In addition, in [7] (breast carcinoma xenografts), the “inhibition of accumulation of the two other NGR-displaying phage by co-injected soluble peptide” value is listed as “also inhibited the accumulation” and the “inhibition of tumor homing of CNGRCVSGCAGRC (NGR) phage by co-injected soluble peptide” value is given as “inhibited the accumulation”. Moreover, in [7] (increasing amounts of peptide), the “inhibition of tumor homing of RGD-4C phage by co-injected soluble peptide” value is listed as “not inhibited”.
Regarding “doxorubicin/CNGRC (not fully specified (bridges); cysteine pairing not given here; also: doxorubicin conjugate)”, the “toxicity compared with free doxorubicin” value in data set [8] is recorded as “less toxic than free doxorubicin”. In addition, in data set [9] (setting [10]), the survival result was “A marked effect on survival” and the “tumor size versus doxorubicin control” value was “significantly smaller”. Moreover, the “survival versus doxorubicin alone” value in data set [9] (5 μg/mouse/week or single dose 200 μg/mouse doxorubicin equivalent) is recorded as “lived longer”. Further, the cures entry in data set [9] (mouse, in vivo) was “Cures were also observed”. For the same molecule, in [9] (relative to vehicle alone), the “effect on tumor growth” value is listed as “almost completely suppressed tumor growth”. In addition, the “survival versus unconjugated peptide doxorubicin mixture” value in the data set with Hodgkin's lymphoma was “lived longer”.
